Test results from patent US10308608B2, “Histone deacetylase inhibitors” (BIOMARIN PHARMACEUTICAL INC., priority 2015, dated 2019).
Where a name gives a salt, the structure may show the parent alone.

System: Frataxin (FXN) mRNA
Experiment: Effect of HDAC inhibitors on frataxin (FXN) mRNA expression, qRT-PCR in compound-treated iPSC derived neuronal cells
Format: cell-based
Conditions: iPSC, 24 h, compound concentration of 0.625 μM, 24 h incubation, read-out: FXN mRNA fold induction
Summary of the method: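 iPSC-derived neuronal cells, differentiated 16 days without EGF/bFGF, treated with compound 24 h. FXN mRNA measured by one-step SYBR Green qRT-PCR; fold induction reported at 0.625 μM compound, binned A<1, 1<B<2, 2<C<3, 3<D<5, E>5.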

Structure (SMILES): Nc1ccccc1NC(=O)c1ccc(OC2CCCN(C3COC3)CC2)cc1 (centres unmarked) [Compound 124, N-(2-aminophenyl)-4-((1-(oxetan-3-yl)azepan-4-yl)oxy)benzamide]
- fold induction at 0.625 µM: 1 to 2

Structure (SMILES): Nc1ccccc1NC(=O)c1ccc(OC2CN(C3CC3)C2)cc1 [Compound 125, N-(2-aminophenyl)-4-((1-cyclopropylazetidin-3-yl)oxy)benzamide]
- fold induction at 0.625 µM: 1 to 2

Structure (SMILES): Nc1ccccc1NC(=O)c1ccc(OC2CN(C3COC3)C2)cc1 [Compound 126, N-(2-aminophenyl)-4-((1-(oxetan-3-yl)azetidin-3-yl)oxy)benzamide]
- fold induction at 0.625 µM: 1 to 2

Structure (SMILES): Nc1ccccc1NC(=O)c1ccc(O[C@H]2CCN(C3CC3)C2)cc1 [Compound 127, (S)-N-(2-aminophenyl)-4-((1-cyclopropylpyrrolidin-3-yl)oxy)benzamide dihydrochloride]
- fold induction at 0.625 µM: 1 to 2

Structure (SMILES): Nc1ccccc1NC(=O)c1ccc(O[C@H]2CCN(C3COC3)C2)cc1 [Compound 128, (S)-N-(2-aminophenyl)-4-((1-(oxetan-3-yl)pyrrolidin-3-yl)oxy)benzamide]
- fold induction at 0.625 µM: 1 to 2

Structure (SMILES): Nc1ccccc1NC(=O)c1ccc(O[C@@H]2CCN(C3CC3)C2)cc1 [Compound 129, (R)-N-(2-aminophenyl)-4-((1-cyclopropylpyrrolidin-3-yl)oxy)benzamide]
- fold induction at 0.625 µM: 1 to 2

Structure (SMILES): Nc1ccccc1NC(=O)c1ccc(O[C@@H]2CCN(C3COC3)C2)cc1 [Compound 130, (R)-N-(2-aminophenyl)-4-((1-(oxetan-3-yl)pyrrolidin-3-yl)oxy)benzamide]
- fold induction at 0.625 µM: 1 to 2

Structure (SMILES): Nc1ccccc1NC(=O)c1ccc(OC2CCN(C3CC3)CC2)cc1 [Compound 131, N-(2-aminophenyl)-4-((1-cyclopropylpiperidin-4-yl)oxy)benzamide dihydrochloride]
- fold induction at 0.625 µM: 1 to 2

Structure (SMILES): Nc1ccccc1NC(=O)c1ccc(OC2CCN(C3COC3)CC2)cc1 [Compound 132, N-(2-aminophenyl)-4-((1-(oxetan-3-yl)piperidin-4-yl)oxy)benzamide]
- fold induction at 0.625 µM: 1 to 2

Structure (SMILES): Nc1ccccc1NC(=O)c1ccc(OC2CCN(CC34CC5CC(CC(C5)C3)C4)CC2)cc1 [Compound 133, 4-((1-(((3r,5r,7r)-adamantan-1-yl)methyl)pipendin-4-yl)oxy)-N-(2-aminophenyl)benzamide dihydrochloride]
- fold induction at 0.625 µM: 2 to 3

Structure (SMILES): Nc1ccccc1NC(=O)c1ccc(NC2CN(C3CC3)C2)cc1 [Compound 134, N-(2-aminophenyl)-4-((1-cyclopropylazetidin-3-yl)amino)benzamide trihydrochloride]
- fold induction at 0.625 µM: 1 to 2

Structure (SMILES): Nc1ccccc1NC(=O)c1ccc(NC2CN(C3COC3)C2)cc1 [Compound 135, N-(2-aminophenyl)-4-((1-(oxetan-3-yl)azetidin-3-yl)amino)benzamide]
- fold induction at 0.625 µM: 1 to 2

Structure (SMILES): Nc1ccccc1NC(=O)c1ccc(N[C@H]2CCN(C3CC3)C2)cc1 [Compound 136, (S)-N-(2-aminophenyl)-4-((1-cyclopropylpyrrolidin-3-yl)amino)benzamide]
- fold induction at 0.625 µM: 1 to 2

Structure (SMILES): Nc1ccccc1NC(=O)c1ccc(N[C@H]2CCN(C3COC3)C2)cc1 [Compound 137, (S)-N-(2-aminophenyl)-4-((1-(oxetan-3-yl)pyrrolidin-3-yl)amino)benzamide]
- fold induction at 0.625 µM: 1 to 2

Structure (SMILES): Nc1ccccc1NC(=O)c1ccc(N[C@@H]2CCN(C3CC3)C2)cc1 [Compound 138, (R)-N-(2-aminophenyl)-4-((1-cyclopropylpyrrolidin-3-yl)amino)benzamide trihydrochloride]
- fold induction at 0.625 µM: 2 to 3

Structure (SMILES): Nc1ccccc1NC(=O)c1ccc(N[C@@H]2CCN(C3COC3)C2)cc1 [Compound 139, (R)-N-(2-aminophenyl)-4-((1-(oxetan-3-yl)pyrrolidin-3-yl)amino)benzamide tris(2,2,2-trifluoroacetate)]
- fold induction at 0.625 µM: 1 to 2

Structure (SMILES): Nc1ccccc1NC(=O)c1ccc(NC2CCN(C3CC3)CC2)cc1 [Compound 140, N-(2-aminophenyl)-4-((1-cyclopropylpiperidin-4-yl)amino)benzamide trihydrochloride trihydrochloride]
- fold induction at 0.625 µM: 2 to 3
